# Assay results as given in US11523980B2, “Use of a peptide for the treatment of epiderm” (Sederma, priority 2018, dated 2022).
# Marks after values point to notes of the source that are not given here. Residues, ends and D or L forms follow the SMILES beside them. *: point of attachment. Palmitoyl = CCCCCCCCCCCCCCCC(=O)*
# Columns and labels:
# [1] = system: normal human keratinocytes (NHK); test: DNA-Array, mRNA expression in confluent keratinocytes; format: cell-based; settings: 4 ppm
# Protocol: The following in vitro tests were performed on epidermal cells: normal human keratinocytes (NHK) or on skin explant or on reconstructed skin. The peptide according to the invention was tested, in solution in an inert solvent (ethanol), at recommended concentrations of use on the skin. The peptide according to the invention was contacted for 6 or 24 h with confluent KHN (n=3). Then the KHN mats were rinsed and the cells were crushed to extract their mRNAs. These mRNAs are then converted into small DNA sequences which are analyzed after deposition on DNA chips and amplification by a method similar to qRT-PCR (Real-Time Quantitative Reverse Transcription Polymerase Chain Reaction). The mRNA variations due to the peptide are compared to the control case (peptide solvent).
# filaggrin gene = test: qRT-PCR analysis of filaggrin gene expression; format: cell-based, human
# Excerpt: The genes of loricrin, filaggrin and filaggrin 2, three proteins involved in the building of the corneocyte or the moisturisation of the Stratum corneum, were statistically better expressed than in the solvent control (p<0.01). […] 3.66 times compared to control (p<0.01).
# [2] = system: normal human keratinocytes (NHK); test: LC-MS/MS study of proteins in NHK culture (7 days); format: cell-based; settings: 4 ppm
# Excerpt: The same culture protocol as for the DNA-Array (1.1/above) was used but with a longer culture time (7 days), the protein productions taking longer to be detected with this LC-MS/MS method. The NHK culture medium (n=3) was changed every 3 days. At the end of this contact, the cells were lysed so as to extract the proteins and to analyze them in the form of crushed material by a method associating the action of a protease on the crushed material, the separation of the fragments by coupled liquid chromatography to mass spectrometry, then the identification and concentration of pre-existing proteins according to the nature and quantity of fragments obtained (LC-MS/MS). To conduct LC-MS/MS analysis on equivalent amounts of protein, the protein concentration was measured on the crushed material.
# (§1) A study of the variances and a Student's t test were carried out in order to judge the significance of the results.
# [3] = system: α-crystallin protein in reconstructed skin epidermis; test: α-crystallin immunohistology on reconstructed skins; format: cell-based, human; settings: for α-cristallin % of variation/control: reconstructed skin epidermis, 24 hours then following 18 days
# Protocol: Normal human fibroblasts were seeded in a matrix. A few days after keratinocytes were deposited on this equivalent dermis to form a uniform layer of cells. At this stage the whole was passed to an air-liquid interface (emersion) so as to form a pluristratified epidermis. After 21 days (approximately), a mature skin equivalent was obtained (with an epidermis comprising the stratum corneum).
# On the eve of the emergence phase, the layer of confluent human keratinocytes of these skins received the peptide according to the invention for 24 hours and then for the following 18 days (period of formation of the epidermis). Cryo-sections (7 μm) were made and the α-crystallin was labeled with fluorescent antibodies (immunohistology). The fluorescence was analyzed in photos, an equivalent surface was analyzed for all the photographs (n=51-59). Student's t test was performed.
# [4] = system: normal human keratinocytes (NHK); test: Immunocytochemistry of differentiation markers and ceramides in NHK; format: cell-based; settings: 2 ppm, 7 days
# Protocol: Confluent NHKs (n=3) were cultured as previously for 7 days in the presence or absence (control) of the peptide according to the invention, then immunocytochemistry markings were carried out using antibodies directed against proteins characteristic of the maturation of the epidermis: involucrin, loricrin and filaggrin, or of moisturizing: filaggrin, as well as ceramides (structuring elements of the Stratum corneum).
# (§2) A quantification of the number of cells was carried out in parallel for the 4 tests described in this part, so as to reduce the results to the number of cells.
# [5] = system: hyaluronic acid secretion in NHK; test: Hyaluronic acid secretion by keratinocytes (ELISA); format: cell-based, human; settings: for Hyaluronic acid % of variatio/control: ELISA
# Protocol: The moisturizing aspect was evaluated by the assay of hyaluronic acid produced by keratinocytes by an ELISA method.
# as §2
# transglutaminases = test: Transglutaminase activity (fluorescent dansylcadaverine) in NHK; format: cell-based, human; settings: contact up to 21 days
# Protocol: (§3) Finally, the influence of the peptide according to the invention on the activity of transglutaminases and on the expression of the transglutaminase-5 gene was evaluated.
# For this, confluent NHKs were brought into contact with the peptide according to the invention up to 21 days. Transglutaminase activity was assessed using a protocol using fluorescent dansylcadaverine which is bound to Stratum corneum proteins by these enzymes. An analysis of the fluorescence was performed, and the results compared to the solvent control.
# as §2
# transglutaminase-5 gene = test: Transglutaminase-5 gene expression (qRT-PCR) in KHN; format: cell-based, human; settings: 72 hours of contact
# Protocol: as §3
# With regard to transglutaminase-5, a qRT-PCR was performed after 72 hours of contact between the KHN and the peptide according to the invention.
# as §2
# confluent keratinocytes = test: Intracellular calcium mobilization in confluent keratinocytes (fluorescent calcium probe); format: cell-based, human; settings: 6 or 15 ppm; visible after about 30 minutes of contact
# Protocol: Confluent keratinocytes were loaded with a specific calcium probe. This molecule becomes very fluorescent in the presence of intracellular free calcium. The appearance of fluorescence under the microscope was monitored. The cells, once loaded, were rinsed and then received the peptide according to the invention at 6 or 15 ppm or a positive control (bradykinin).
# A study of the variances and a t test of Student were carried out in order to judge the significance of the results (n=3 for each condition).
# Lnc-RNA ANCR = Lnc-RNA ANCR expression (qRT-PCR) in confluent keratinocytes; format: cell-based, human; settings: 24 h
# Protocol: In this test confluent keratinocytes were contacted with the peptide according to the invention for 24 hours, then the cells were rinsed, ground and their RNAs were extracted, converted into DNA and then analyzed by qRT-PCR.
# A study of the variances and a Student's t-test were carried out in order to judge the significance of the results (n=4 for each condition).
# desmoglein = test: Desmoglein fluorescence immunohistology on abdominal skin explant; format: cell-based, human; settings: cream containing 6 ppm applied daily, 6 days, vs placebo cream
# Excerpt: (§4) Desmoglein was searched on sections of abdominal skin (person) who had received a cream containing 6 ppm of the peptide according to the invention or the placebo cream. After 6 days (cream applied daily), the skins were frozen and sectioned to look for desmoglein using antibodies against this protein (fluorescence immunohistology). Photos were captured using a fluorescence microscope and the images analyzed using suitable software. The results were compared to those of the placebo cream.
# KLK5 (kallikrein 5) = test: KLK5 fluorescence immunohistology on abdominal skin explant; format: cell-based, human; settings: cream containing 6 ppm applied daily, 6 days, vs placebo cream
# Excerpt: as §4
# The same sections as those used for desmoglein, as well as the same method (fluorescence immunohistology) were used to analyze and quantify the effect of the peptide according to the invention on this desquamation marker.
# NHKs exposed to UVB = test: Secretome of pro-inflammatory mediators by NHKs exposed to UVB (ELISA); format: cell-based, human; settings: NHK + UVB
# Protocol: To test the active, keratinocytes were cultured under mild stress conditions (application of UVB radiation) so as to mimic experimental micro-inflammation of the skin. In this situation a significant decrease in their secretome of inflammation mediators will be interpreted in the sense of a repairing and protective action of the skin.
# NHKs in culture and at confluence were brought into contact with the peptide according to the invention (or its solvent) for 24 hours in a medium allowing their survival, then the mats were irradiated with UVB in a physiological buffer and placed back into contact with products to be tested for 24 hours. At the end of this incubation, the culture media were assayed by ELISA in order to know the quantities of pro-inflammatory mediators produced by these cells in response to irradiation. The results were compared with solvent control +/−irradiation. A cellular respiration test was conducted to evaluate the number of cells and standardize the results.
# as §1
smiles,measurement,setting,value
"CCCCCCCCCCCCCCCC(=O)NC(CCCCN)C(=O)NC(C(=O)NC(Cc1ccccc1)C(=O)NC(CCCCN)C(=O)O)C(C)O (stereo not shown) [peptide according to the invention, palmitoyl-lysyl-threonyl-phenylalanyl-lysine] (Palmitoyl-KTFK-OH; configuration not given here)",Toxic effects,[1]; 6 or 24 h contact,No toxic effects were noted.
same,Increase in production of mRNA coding for TRPC6 compared with the solvent control,[1]; 6 h,6.05 ×
same,Variation with respect to the control of expression of gene coding for Filaggrin,[1]; 6 hours contact,×2.32 *
same,Variation with respect to the control of expression of gene coding for Filaggrin 2,[1]; 6 hours contact,×2.42 *
same,Variation with respect to the control of expression of gene coding for Loricrin,[1]; 6 hours contact,×2.97 *
same,Variation with respect to the control of expression of gene coding for LCE2D,[1]; 24 hours contact,×1.84 **
same,Variation with respect to the control of expression of gene coding for LCE3B,[1]; 24 hours contact,×2.13 **
same,Variation with respect to the control of expression of gene coding for LCE3C,[1]; 24 hours contact,×3.25 **
same,Variation with respect to the control of expression of gene coding for LCE3D,[1]; 24 hours contact,×2.06 **
same,Variation with respect to the control of expression of gene coding for LCE3E,[1]; 24 hours contact,×2.33 **
same,Variation with respect to the control of expression of gene coding for SPRR2B,[1]; 24 hours contact,×2.13 **
same,Variation with respect to the control of expression of gene coding for SPRR2C,[1]; 24 hours contact,×1.58 **
same,Increase of filaggrin gene expression compared to control (qRT-PCR),filaggrin gene; 4 ppm,2.87 times
same,Increase of filaggrin gene expression compared to control (qRT-PCR),filaggrin gene; 6 ppm,3.66 times
same,Toxic effects,[2],No toxic effects were noted.
same,Variation with respect to the control of protein Filaggrin,[2]; LC-MS/MS,×4.16
same,Variation with respect to the control of protein Keratin 10,[2]; LC-MS/MS,×1.46
same,Variation with respect to the control of protein NICE-1,[2]; LC-MS/MS,×3.42
same,Variation with respect to the control of protein SPRR1A,[2]; LC-MS/MS,×1.55
same,Variation with respect to the control of protein α-cristallin,[2]; LC-MS/MS,×2.19
same,Toxic effects,"[3]; 4 and 6 ppm, reconstructed skin",No toxic effects were noted.
same,α-cristallin % of variation/control,[3]; 4 ppm,+61%; p < 0.01
same,α-cristallin % of variation/control,[3]; 6 ppm,+164%; p < 0.01
same,Toxic effects,[4],No toxic effects were noted.
same,Ceramides % of variation/control,[4]; immunofluorescence,+334%;
same,Filaggrin % of variation/control,[4]; immunofluorescence,+554%;
same,Involucrin % of variation/control,[4]; immunofluorescence,+60%;
same,Loricrin % of variation/control,[4]; immunofluorescence,+261%;
same,Toxic effects,[5]; 4 and 6 ppm,No toxic effects were noted.
same,Hyaluronic acid % of variatio/control,[5]; 4 ppm,+40%; p < 0.01
same,Hyaluronic acid % of variatio/control,[5]; 6 ppm,+91%; p < 0.01
same,Transglutaminase Intra-KHN activity % of variation/control,transglutaminases; 4 ppm,+45%; p < 0.01
same,Transglutaminase Intra-KHN activity % of variation/control,transglutaminases; 6 ppm,+107%; p < 0.01
same,Transglutaminase-5 Gene expression % of variation/control,transglutaminase-5 gene; 4 ppm,+133%; p < 0.01
same,Transglutaminase-5 Gene expression % of variation/control,transglutaminase-5 gene; 6 ppm,+798%; p < 0.01
same,"Intracellular calcium mobilization (visual, fluorescence microscope)",confluent keratinocytes,induces an intracellular calcium mobilization
same,ANCR ratio % of variation/control,Lnc-RNA ANCR; 4 ppm,−27%; p < 0.05
same,ANCR ratio % of variation/control,Lnc-RNA ANCR; 6 ppm,−34%; p < 0.01
same,Desmogleine % of variation/control,desmoglein,+24%; p < 0.01
same,KLK5 % of variation/control,KLK5 (kallikrein 5),+258%; p < 0.01
same,IL-1α % of variation/control,NHKs exposed to UVB; 2 ppm,−15%
same,IL-1β % of variation/control,NHKs exposed to UVB; 2 ppm,−14%
same,IL-6 % of variation/control,NHKs exposed to UVB; 2 ppm,−12%
same,PGE2 % of variation/control,NHKs exposed to UVB; 2 ppm,−31%
same,TNF-α % of variation/control,NHKs exposed to UVB; 2 ppm,−10%
same,IL-1α % of variation/control,NHKs exposed to UVB; 4 ppm,−38%
same,IL-1β % of variation/control,NHKs exposed to UVB; 4 ppm,−43%
same,IL-6 % of variation/control,NHKs exposed to UVB; 4 ppm,−70%
same,PGE2 % of variation/control,NHKs exposed to UVB; 4 ppm,−59%
same,TNF-α % of variation/control,NHKs exposed to UVB; 4 ppm,−56%
same,IL-1α % of variation/control,NHKs exposed to UVB; 6 ppm,−46%
same,IL-1β % of variation/control,NHKs exposed to UVB; 6 ppm,−54%
same,IL-6 % of variation/control,NHKs exposed to UVB; 6 ppm,−84%
same,PGE2 % of variation/control,NHKs exposed to UVB; 6 ppm,−74%
same,TNF-α % of variation/control,NHKs exposed to UVB; 6 ppm,−71%
